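Five concentrations, 48 hours, 96-well plates. GI50 marks 50% less growth. TGI is the concentration that stops growth completely.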
Tests used:
Experiment in all cases: NCI anticancer screen, dose series, 48 h
HL-60(TB) leukemia = tested on: HL-60(TB) leukemia
MALME-3M melanoma = tested on: MALME-3M melanoma
MOLT-4 leukemia = tested on: MOLT-4 leukemia
OVCAR-3 ovarian = tested on: OVCAR-3 ovarian
HS 578T breast = tested on: HS 578T breast
NCI-H23 lung = tested on: NCI-H23 lung
OVCAR-5 ovarian = tested on: OVCAR-5 ovarian
TK-10 renal = tested on: TK-10 renal
OVCAR-8 ovarian = tested on: OVCAR-8 ovarian
SNB-75 CNS = tested on: SNB-75 CNS
A498 renal = tested on: A498 renal
T-47D breast = tested on: T-47D breast
ACHN renal = tested on: ACHN renal
HCC-2998 colon = tested on: HCC-2998 colon
A549 NSCLC = tested on: A549 NSCLC
MCF7 breast = tested on: MCF7 breast
COLO 205 colon = tested on: COLO 205 colon
RXF 393 renal = tested on: RXF 393 renal
U251 CNS = tested on: U251 CNS
SW-620 colon = tested on: SW-620 colon
M14 melanoma = tested on: M14 melanoma
UACC-257 melanoma = tested on: UACC-257 melanoma
HCT-15 colon = tested on: HCT-15 colon
HOP-62 NSCLC = tested on: HOP-62 NSCLC
SF-268 CNS = tested on: SF-268 CNS
OVCAR-4 ovarian = tested on: OVCAR-4 ovarian
SK-MEL-5 melanoma = tested on: SK-MEL-5 melanoma
EKVX NSCLC = tested on: EKVX NSCLC
MDA-MB-435 = tested on: MDA-MB-435

**Q.** How did the TGI (HL-60(TB) leukemia) turn out when `CCCCC(CCCCCC(CCCC)C1NC(C)Cc2cc(OC)c(OC)cc21)C1NC(C)Cc2cc(OC)c(OC)cc21` (configuration not stated) was run?
**A.** 3790 nM

**Q.** And the GI50 (MALME-3M melanoma)?
**A.** 1900 nM

**Q.** And the TGI (MALME-3M melanoma)?
**A.** 3940 nM

**Q.** And the GI50 (MOLT-4 leukemia)?
**A.** 1960 nM

**Q.** What about the TGI (MOLT-4 leukemia) of the same molecule?
**A.** 4220 nM

**Q.** And the GI50 (OVCAR-3 ovarian)?
**A.** 1830 nM

**Q.** What about the TGI (OVCAR-3 ovarian) of the same molecule?
**A.** 3270 nM

**Q.** And the GI50 (HS 578T breast)?
**A.** 1430 nM

**Q.** And the TGI (HS 578T breast)?
**A.** 3600 nM

**Q.** What about the GI50 (NCI-H23 lung) of the same molecule?
**A.** 1670 nM

**Q.** And the TGI (NCI-H23 lung)?
**A.** 3200 nM

**Q.** And the GI50 (OVCAR-5 ovarian)?
**A.** 1820 nM

**Q.** What about the TGI (OVCAR-5 ovarian) of the same molecule?
**A.** 3250 nM

**Q.** And the GI50 (TK-10 renal)?
**A.** 1750 nM

**Q.** What about the TGI (TK-10 renal) of the same molecule?
**A.** 3220 nM

**Q.** And the GI50 (OVCAR-8 ovarian)?
**A.** 1730 nM

**Q.** And the TGI (OVCAR-8 ovarian)?
**A.** 3290 nM

**Q.** And the GI50 (SNB-75 CNS)?
**A.** 1280 nM

**Q.** And the TGI (SNB-75 CNS)?
**A.** 2570 nM

**Q.** What about the GI50 (A498 renal) of the same molecule?
**A.** 1410 nM

**Q.** And the TGI (A498 renal)?
**A.** 2730 nM

**Q.** And the GI50 (T-47D breast)?
**A.** 1600 nM

**Q.** What about the TGI (T-47D breast) of the same molecule?
**A.** 3110 nM

**Q.** What about the GI50 (ACHN renal) of the same molecule?
**A.** 1760 nM

**Q.** And the TGI (ACHN renal)?
**A.** 3210 nM

**Q.** What about the GI50 (HCC-2998 colon) of the same molecule?
**A.** 250 nM

**Q.** And the TGI (HCC-2998 colon)?
**A.** 742 nM

**Q.** What about the GI50 (A549 NSCLC) of the same molecule?
**A.** 1570 nM

**Q.** What about the TGI (A549 NSCLC) of the same molecule?
**A.** 3020 nM

**Q.** And the GI50 (MCF7 breast)?
**A.** 1190 nM

**Q.** And the TGI (MCF7 breast)?
**A.** 2520 nM

**Q.** What about the GI50 (COLO 205 colon) of the same molecule?
**A.** 294 nM

**Q.** And the TGI (COLO 205 colon)?
**A.** 842 nM

**Q.** And the GI50 (RXF 393 renal)?
**A.** 1200 nM

**Q.** And the TGI (RXF 393 renal)?
**A.** 2480 nM

**Q.** What about the GI50 (U251 CNS) of the same molecule?
**A.** 1290 nM

**Q.** And the TGI (U251 CNS)?
**A.** 2630 nM

**Q.** And the GI50 (SW-620 colon)?
**A.** 819 nM

**Q.** And the TGI (SW-620 colon)?
**A.** 2200 nM

**Q.** And the GI50 (M14 melanoma)?
**A.** 1790 nM

**Q.** What about the TGI (M14 melanoma) of the same molecule?
**A.** 3390 nM

**Q.** And the GI50 (UACC-257 melanoma)?
**A.** 1710 nM

**Q.** And the TGI (UACC-257 melanoma)?
**A.** 3220 nM

**Q.** What about the GI50 (HCT-15 colon) of the same molecule?
**A.** 1310 nM

**Q.** And the TGI (HCT-15 colon)?
**A.** 2760 nM

**Q.** And the GI50 (HOP-62 NSCLC)?
**A.** 1470 nM

**Q.** What about the TGI (HOP-62 NSCLC) of the same molecule?
**A.** 2880 nM

**Q.** What about the GI50 (SF-268 CNS) of the same molecule?
**A.** 1640 nM

**Q.** And the TGI (SF-268 CNS)?
**A.** 3080 nM

**Q.** What about the GI50 (OVCAR-4 ovarian) of the same molecule?
**A.** 1450 nM

**Q.** What about the TGI (OVCAR-4 ovarian) of the same molecule?
**A.** 2760 nM

**Q.** What about the GI50 (SK-MEL-5 melanoma) of the same molecule?
**A.** 1520 nM

**Q.** And the TGI (SK-MEL-5 melanoma)?
**A.** 2850 nM

**Q.** And the GI50 (EKVX NSCLC)?
**A.** 1710 nM

**Q.** And the TGI (EKVX NSCLC)?
**A.** 3610 nM

**Q.** And the GI50 (MDA-MB-435)?
**A.** 1760 nM

**Q.** And the TGI (MDA-MB-435)?
**A.** 4190 nM

From PubChem BioAssay (NCI)
